Data from patent US8846671B2, “Heterocyclic alkynyl benzene compounds and medical compositions and uses thereof” (Guangzhou Institute of Biomedicine and Health, Chinese …, priority 2010, dated 2014).
pIC50: −log10 of the molar value. Several values for one entry are separate records, joined by “and”; a condition that tells them apart may be missing. Equal values may be shown once. Read-outs that look alike come from different tables or passages of the source.

Legend:
[1] = tested on: K562 (human chronic myelogenous leukemia cell line); test: tumor cell proliferation, MTT or CCK8 assay, 72 h incubation; type: cell-based; details: K562, 72 h, read-out: IC50 on tumor cell proliferation, K562; for IC50: MTT or CCK8, nM
Method: (§1) The heterocyclic alkynyl benzene compounds at different concentrations (1×10^−10˜1×10^−5M) were incubated for 72 hours individually applied to 6 cell lines K562 (human CML cell line), MOLT-4 (human ALL cell line), U937 (human CML cell line), MEG-01 (human CML cell line), L78 (human lung cancer cell line), Ba/F3-T315I (mice Pro-B cells transformed with Bcr-AblT315I and STI57′-resistant cell line). After incubation for 72 hrs, cell proliferation was then determined by MTT assay or CCK8 assay, and 4 hr incubation is further conducted, the absorbance at 570 nm (CCK8, 450 nm, 650 nm) was measured using enzyme Microplate Reader. […] Based on the inhibition potency of the heterocyclic alkynyl benzene compounds on the cell proliferation, IC50 values were calculated and summarized in the Table 1 and Table 2 (The compounds used were synthesized by Examples 1-40, and the compounds are marked with Drug No. series in Table 1).

[2] = tested on: MEG-01 (Human megakaryoblastic leukaemia cell line); test: as above; type: cell-based; details: MEG-01, 72 h, read-out: IC50 on tumor cell proliferation, MEG-01; for IC50: MTT or CCK8, nM
Method: as §1

[3] = tested on: U937 Cell line; test: as above; type: cell-based; details: Homo sapiens, read-out: IC50 on tumor cell proliferation, U937; for IC50: nM
Method: as §1

[4] = tested on: MOLT-4 (Human acute lymphoblastic leukemia cell line); test: as above; type: cell-based; details: MOLT-4, 72 h, read-out: IC50 on tumor cell proliferation, MOLT-4; for IC50: MTT or CCK8, nM
Method: as §1

[5] = tested on: K562R cells (imatinib-resistant cell line); test: as above; type: cell-based; details: Homo sapiens, K-562R, read-out: IC50 on tumor cell proliferation, K562R cells
[6] = target: BAF3-T315I cells (Ba/F3 cell line stably expressing BCR/ABL T315I) (Homo sapiens, UniProt P00519, T315I, cells depend on it); test: as above; type: cell-based, mice
Method: The heterocyclic alkynyl benzene compounds at different concentrations (1×10^−10˜1×10^−5M) were incubated for 72 hours individually applied to 6 cell lines K562 (human CML cell line), MOLT-4 (human ALL cell line), U937 (human CML cell line), MEG-01 (human CML cell line), L78 (human lung cancer cell line), Ba/F3-T315I (mice Pro-B cells transformed with Bcr-AblT315I and STI57′-resistant cell line). After incubation for 72 hrs, cell proliferation was then determined by MTT assay or CCK8 assay, and 4 hr incubation is further conducted, the absorbance at 570 nm (CCK8, 450 nm, 650 nm) was measured using enzyme Microplate Reader.

[7] = Pharmacokinetics and bioavailability in rats; type: in vivo; details: SD rats; corresponding pharmaceutical acceptable salt forms
Method: Pharmacokinetics and bioavailability in rats. […] The blood samples were collected at the proper time points after administration, add heparin-anticoagulant, and the supernatants of the blood samples were collected (3000 rpm, 10 min) and stored at -20° C. for HPLC-MS analysis. After protein-precipitation procedure with acetonitrile, supernatants were collected after 3000 rpm, 10 min for analysis with HPLC-MS. The data were analyzed with software DAS2.0 to separately acquire the parameters of compartment models and non-compartment models. The bioavailability was calculated according to AUC data.

[8] = read-out: IC50 on tumor cell proliferation, BAF3-T315I cells, Ba/F3 expressing BCR/ABL T315I, 72 h, Table 1
[9] = Ba/F3 expressing BCR/ABL T315I, 72 h, Table 1, read-out: IC50 on tumor cell proliferation, BAF3-T315I cells

With `Cc1cn(-c2cc(NC(=O)c3ccc(C)c(C#Cc4cnc(Nc5ccccc5)nc4)c3)cc(C(F)(F)F)c2)cn1` [D809, 4-methyl-N-(3-(4-methyl-1H-imidazol-1-yl)-5-(trifluoromethyl)phenyl)-3-(2-(2-(phenylamino)pyrimidin-5-yl)ethynyl)benzamide] the pIC50 [1] was less than 7.00, the pIC50 [2] was 6.94 and the pIC50 ([3]; U-937, 72 h) was less than 7.00. The pIC50 [4] was less than 7.00, the pIC50 [5] was 6.75 and the GI50 [6, 8] was 102 nM and 71.1 nM.
Work on `Cc1cn(-c2cc(NC(=O)c3ccc(C)c(C#Cc4cnc(N)nc4)c3)cc(C(F)(F)F)c2)cn1` [D803, 3-(2-(2-aminopyrimidin-5-yl)ethynyl)-4-methyl-N-(3-(4-methyl-1H-imidazol-1-yl)-5-(trifluoromethyl)phenyl)benzamide] yielded a pIC50 [1] of 8.82, a pIC50 [2] of less than 7.00 and a pIC50 ([3]; U-937, 72 h) of 6.83. The pIC50 [4] was 6.88, the pIC50 [5] was 7.20 and the GI50 [6, 8] was 124 nM and 85.8 nM.
`Cc1cn(-c2cc(NC(=O)c3ccc(C)c(C#Cc4cnc5ncnn5c4)c3)cc(C(F)(F)F)c2)cn1` [D798, 3-(2-([1,2,4]-triazolo[1,5-a]pyrimidin-6-yl)ethynyl)-4-methyl-N-(3-(4-methyl-1H-imidazol-1-yl)-5-(trifluoromethyl)phenyl)benzamide] gave an IC50 [1] of 34 nM, an IC50 [2] greater than 100 nM and an IC50 ([3]; U-937, 72 h, MTT or CCK8) greater than 100 nM. It also gave an IC50 [4] greater than 10 nM, a pIC50 ([5]; imatinib-resistant K562R) of 5.91 and a GI50 [6, 9] of 1860 nM.
`Cc1ccc(C(=O)Nc2cc(-n3ccnc3)cc(C(F)(F)F)c2)cc1C#Cc1cnc(NC2CC2)nc1` [D729, N-(3-(1H-imidazol-1-yl)-5-(trifluoromethyl)phenyl)-3-(2-(2-(cyclopropylamino)pyrimidin-5-yl)ethynyl)-4-methylbenzamide] showed an IC50 [1] of 2.09 nM, a pIC50 ([2]; MTT or CCK8, no unit in cell) of 5.18 and a pIC50 ([4]; MTT or CCK8, no unit in cell) of 5.24. The pIC50 ([5]; imatinib-resistant K562R) was 7.14, the GI50 ([6]; Ba/F3 carrying T315I Bcr-Abl, STI571-resistant, Table 2, read-out: IC50 on the cell proliferation of Ba/F3 (T315I)) was less than 100 nM and the GI50 [6, 9] was 49.7 nM.
For `Cc1ccc(C(=O)Nc2cc(-n3ccnc3)cc(C(F)(F)F)c2)cc1C#Cc1cnc2ccnn2c1` [D819, N-(3-(1H-imidazol-1-yl)-5-(trifluoromethyl)phenyl)-4-methyl-3-(2-(pyrazolo[1,5-a]pyrimidin-6-yl)ethynyl)benzamide], the IC50 [1] was 1.5 nM, the IC50 [2] was 122 nM and the IC50 ([3]; U-937, 72 h, MTT or CCK8) was 2210 nM. It also gave an IC50 [4] of 146 nM, a pIC50 ([5]; imatinib-resistant K562R) of 6.84 and a GI50 [6, 9] of 3120 nM.
Compound `Cc1cn(-c2cc(NC(=O)c3ccc(C)c(C#Cc4cnc(NC(C)(C)C)nc4)c3)cc(C(F)(F)F)c2)cn1` [D806, 3-(2-(2-(tert-butylamino)pyrimidin-5-yl)ethynyl)-4-methyl-N-(3-(4-methyl-1H-imidazol-1-yl)-5-(trifluoromethyl)phenyl)benzamide] has a pIC50 [1] of less than 7.00, a pIC50 [2] of 6.88 and a pIC50 ([3]; U-937, 72 h) of 6.83. For the same compound, the pIC50 [4] was less than 7.00 and the GI50 [6, 8] was 1890 nM.
In the case of `Cc1ccc(C(=O)Nc2ccc(CN3CCN(C)CC3)c(C(F)(F)F)c2)cc1C#Cc1cnc2ccnn2c1` [D856, 4-methyl-N-(4-((4-methylpiperazin-1-yl)methyl)-3-(trifluoromethyl)phenyl)-3-(2-(pyrazolo[1,5-a]pyrimidin-6-yl)ethynyl)benzamide], the pIC50 ([1]; MTT or CCK8, no unit in cell) was 8.65, the pIC50 ([3]; U-937, 72 h, MTT or CCK8, no unit in cell) was 5.70 and the pIC50 ([4]; MTT or CCK8, no unit in cell) was 6.30. For the same compound, the pIC50 ([5]; imatinib-resistant K562R) was 7.17, the GI50 [6, 9] was 10.8 nM and the “pharmacokinetics parameters, overall judgement” value [7] was “adequate pharmacokinetics parameters”.
